# pIC50, pKd, pKi: −log10 of the molar value.
# How the values were obtained:
# [1] = system: T98G glioma cell line; assay: MTS proliferation assay; assay type: cell-based; details: Homo sapiens, 48 h, read-out: IC50 values T98G cell line
# [2] = biological target: T1, immobilized ERRα ligand binding domain (Homo sapiens, UniProt P11474); assay: Retention on the ERRα column; details: data not shown
# T1 sequence (P11474 193-421 limits assumed): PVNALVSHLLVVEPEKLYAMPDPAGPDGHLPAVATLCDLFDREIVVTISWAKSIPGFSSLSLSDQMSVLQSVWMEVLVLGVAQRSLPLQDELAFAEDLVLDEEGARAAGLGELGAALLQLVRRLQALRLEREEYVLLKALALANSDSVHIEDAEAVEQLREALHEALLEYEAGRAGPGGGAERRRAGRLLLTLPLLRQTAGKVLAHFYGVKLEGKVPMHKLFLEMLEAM
# [3] = system: ERRα; details: cited from earlier work
# [4] = biological target: ERRγ; details: cited from earlier work
# [5] = biological target: T2, immobilized ERRγ ligand binding domain (Homo sapiens, UniProt P62508); assay: Non-linear chromatography
# T2 sequence (P62508 233-457 limits assumed): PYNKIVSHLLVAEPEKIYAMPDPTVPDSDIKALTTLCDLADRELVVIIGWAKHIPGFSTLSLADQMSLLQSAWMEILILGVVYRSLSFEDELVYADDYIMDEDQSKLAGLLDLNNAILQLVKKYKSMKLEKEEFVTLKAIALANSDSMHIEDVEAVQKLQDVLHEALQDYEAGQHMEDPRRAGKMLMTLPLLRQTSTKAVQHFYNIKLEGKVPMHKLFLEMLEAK
pIC50 [1],specific retention on the ERRα column [2],pKd [5],Compound,affinity for the ERRα [3],pKi [4]
4.84,not specifically retained,–,CC/C(=C(\c1ccc(O)cc1)c1ccc(OCCN(C)C)cc1)c1ccccc1 [4-hydroxy tamoxifen],no affinity,7.12
–,–,–,CC/C(=C(\c1ccccc1)c1ccc(OCCN(C)C)cc1)c1ccccc1 [Tamoxifen],no affinity,–
5.47,not specifically retained,7.36,CC/C(=C(\c1ccc(O)cc1)c1ccc(OCCNC)cc1)c1ccccc1 [Endoxifen],no affinity,–
